Where two headings read alike, the source gives them in different places. One block for each molecule: values may come before it.
Assays:
β2-adaptin [1] = assay: cells; set-up: species or system HEK293T; ebBRET receptor-RlucII with rGFP-CAAX, inhibition of agonist-induced receptor loss from plasma membrane; settings: Homo sapiens, HEK-293T, 0.5 h; β2AR endocytosis, ISO 10 uM 30 min; read-out: IC50 membrane localization β2AR
Excerpt: Because the interaction between β-arrestins and β2-adaptin is important for initiating receptor internalization, we next sought to determine whether Barbadin could be used as a pharmacological tool, to block the ligand-promoted endocytosis of GPCRs. For this purpose, we used enhanced bystander BRET (ebBRET) trafficking sensors allowing to monitor both receptor disappearance from the plasma membrane (rGFP-CAAX sensor, Fig. 4a) and their accumulation in early endosomes (rGFP-FYVE, Fig. 4e) in spectrometric and microscopy-based assays. […] The effect of Barbadin on endocytosis was further confirmed using BRET-microscopy allowing to image receptor localization at the plasma membrane (Fig. 4i and Supplementary Fig. 5i), and in early endosomes (Supplementary Fig. 5j), coherent with the spectrometric measurements (Fig. 4b–d,f–h). Figure 4 Barbadin inhibits GPCRs endocytosis. […] (b–d,f–h) V2R, β2AR or AT1R interaction with either rGFP-CAAX (b–d, respectively) or rGFP-FYVE (f–h, respectively) was assessed by BRET following HEK293T cells pre-incubation with DMSO or Barbadin (100 μM) for 30 min before AVP (100 nM), ISO (10 μM) or AngII (1 μM) stimulation for the indicated times. […] To generate BRET images, the ratio of acceptor photon counts to donor photon counts was calculated for each pixel and expressed as a colour-coded heat map (lowest being black and purple, and highest red and white). […]

β2-adaptin [2] = molecular target: T1, β2-adaptin (Homo sapiens, UniProt P63010); assay: cell-based; set-up: species or system HEK293T; settings: β-arrestin1/β2-adaptin interaction, V2R stimulated; read-out: IC50 AP2/βarr1 (V2R)
T1 construct: gene AP2B1; residues 700-937 StrepTagII used only for DSF
T1 sequence (P63010 2-937): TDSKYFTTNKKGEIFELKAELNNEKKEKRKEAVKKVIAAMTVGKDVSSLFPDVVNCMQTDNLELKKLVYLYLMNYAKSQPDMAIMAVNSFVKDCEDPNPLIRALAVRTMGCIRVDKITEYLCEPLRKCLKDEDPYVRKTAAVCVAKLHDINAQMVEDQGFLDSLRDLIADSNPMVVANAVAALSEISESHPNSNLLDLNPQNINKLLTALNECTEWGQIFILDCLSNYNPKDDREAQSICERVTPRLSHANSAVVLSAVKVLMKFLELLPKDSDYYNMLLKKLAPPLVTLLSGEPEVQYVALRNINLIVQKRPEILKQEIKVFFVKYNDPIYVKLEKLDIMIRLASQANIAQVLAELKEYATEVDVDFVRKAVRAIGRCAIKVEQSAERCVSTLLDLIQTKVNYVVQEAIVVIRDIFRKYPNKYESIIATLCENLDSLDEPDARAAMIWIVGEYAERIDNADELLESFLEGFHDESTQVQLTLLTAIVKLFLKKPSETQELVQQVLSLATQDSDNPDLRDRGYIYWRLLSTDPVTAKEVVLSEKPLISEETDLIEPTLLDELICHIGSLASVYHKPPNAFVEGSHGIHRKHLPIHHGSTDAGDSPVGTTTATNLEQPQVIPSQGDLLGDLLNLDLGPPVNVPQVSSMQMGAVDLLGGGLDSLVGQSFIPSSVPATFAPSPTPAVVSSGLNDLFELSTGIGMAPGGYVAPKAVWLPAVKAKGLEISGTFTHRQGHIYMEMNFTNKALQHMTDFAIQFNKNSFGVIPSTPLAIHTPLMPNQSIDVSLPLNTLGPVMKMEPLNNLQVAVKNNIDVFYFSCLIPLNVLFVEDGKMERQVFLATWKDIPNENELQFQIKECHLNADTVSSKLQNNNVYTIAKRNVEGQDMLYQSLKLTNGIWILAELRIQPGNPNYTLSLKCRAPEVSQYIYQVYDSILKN
T1 sequence (P49407 whole entry partner, the tested form may be a part): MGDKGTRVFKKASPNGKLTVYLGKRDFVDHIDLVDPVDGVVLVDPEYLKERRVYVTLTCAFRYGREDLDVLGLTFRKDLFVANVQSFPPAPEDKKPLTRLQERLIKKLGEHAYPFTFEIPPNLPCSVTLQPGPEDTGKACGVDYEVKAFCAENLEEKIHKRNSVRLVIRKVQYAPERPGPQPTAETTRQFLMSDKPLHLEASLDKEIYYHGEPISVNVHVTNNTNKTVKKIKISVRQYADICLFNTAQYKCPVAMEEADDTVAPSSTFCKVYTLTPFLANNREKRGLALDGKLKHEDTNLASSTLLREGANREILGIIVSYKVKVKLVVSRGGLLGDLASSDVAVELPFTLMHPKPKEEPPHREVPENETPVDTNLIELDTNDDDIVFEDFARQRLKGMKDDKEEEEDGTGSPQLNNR
Procedure: To assess the potency of these compounds, concentration-response curves of the inhibitory actions of the compounds on the V2R-stimulated β-arrestin/β2-adaptin interaction were carried out. In addition to compounds #33 and #42, compound #1 was included in the analysis as a negative control (Fig. 2a–c). […] First, the reversible mode of action of Barbadin was assessed by incubating cells with Barbadin for 30 min and monitoring BRET between β2-adaptin and β-arrestin1 following, or not, extensive wash before AVP stimulation. […] HEK293T cells stably expressing β2-adaptin-YFP (ref. [24]) were cultured as aforementioned with the addition of G418 in the supplemented DMEM. Forty-eight hours before the experiments, 10 μg of total DNA (adjusted with salmon sperm DNA) was used to transfect 6 × 10^6 cells per ml in 10-cm dishes using 25-kDa linear PEI as a transfecting agent (3:1 PEI/DNA ratio). […] On the day of the BRET experiment, cells were washed, detached and resuspended in Tyrode's buffer. Cells (10^5 cells per well) were distributed in 96-wells microplates. DMSO or compounds selected from the virtual screening were preincubated for 30 min at indicated concentrations, always keeping DMSO at 1% final concentration in each well. Cells were treated with AVP or ISO at the indicated times and concentrations, at room temperature. Coelenterazine H (for YFP BRET acceptor) or coelenterazine 400 A (for GFP10 BRET acceptor) was added at a final concentration of 2.5 μM five minutes before measurements. Readings were collected with a Mithras LB 940 multidetector plate reader (Berthold Technologies) to integrate signals detected in the 485/20 nm and 530/25 nm windows for the Renilla luciferase (RlucII) and YFP light emissions, respectively, and in the 400/70 nm and 515/25 nm windows for the RlucII and GFP10 light emissions, respectively. The BRET signal was determined by calculating the ratio of the light intensity emitted by the YFP or GFP10 over the light intensity emitted by the RlucII. Net BR

β2-adaptin [3] = assay: cells; set-up: species or system HEK293T; ebBRET receptor-RlucII with rGFP-FYVE, inhibition of agonist-induced receptor accumulation in early endosomes; settings: Homo sapiens, HEK-293T, 0.5 h
Excerpt: Because the interaction between β-arrestins and β2-adaptin is important for initiating receptor internalization, we next sought to determine whether Barbadin could be used as a pharmacological tool, to block the ligand-promoted endocytosis of GPCRs. For this purpose, we used enhanced bystander BRET (ebBRET) trafficking sensors allowing to monitor both receptor disappearance from the plasma membrane (rGFP-CAAX sensor, Fig. 4a) and their accumulation in early endosomes (rGFP-FYVE, Fig. 4e) in spectrometric and microscopy-based assays. […] The effect of Barbadin on endocytosis was further confirmed using BRET-microscopy allowing to image receptor localization at the plasma membrane (Fig. 4i and Supplementary Fig. 5i), and in early endosomes (Supplementary Fig. 5j), coherent with the spectrometric measurements (Fig. 4b–d,f–h).  Figure 4 Barbadin inhibits GPCRs endocytosis. (a,e) Schematic representation of the ebBRET-based assay used to follow agonist-induced receptor loss from the cell surface by monitoring the interaction between receptor-RLucII and rGFP-CAAX (a) or its translocation into endosomes using rGFP-FYVE (e). (b–d,f–h) V2R, β2AR or AT1R interaction with either rGFP-CAAX (b–d, respectively) or rGFP-FYVE (f–h, respectively) was assessed by BRET following HEK293T cells pre-incubation with DMSO or Barbadin (100 μM) for 30 min before AVP (100 nM), ISO (10 μM) or AngII (1 μM) stimulation for the indicated times. Data are the mean±s.e.m. of a least three independent experiments. (i) V2R localization was imaged by BRET. HEK293T cells were transfected with V2R-RlucII and rGFP-CAAX, pretreated with DMSO or Barbadin (100 μM) for 30 min and then stimulated with 100 nM AVP for 30 min. To generate BRET images, the ratio of acceptor photon counts to donor photon counts was calculated for each pixel and expressed as a colour-coded heat map (lowest being black and purple, and highest red and white). Scale bar, 10 μm.

β2-adaptin [4] = molecular target: T1, β2-adaptin; assay: differential scanning fluorimetry (CPM dye) on purified β2-appendage, dose-dependent Tm shift; supported by GST-β2-adaptin([…]) pull-down and cell BRET (IC50 […] for β-arrestin1, from cell BRET); assay type: cell-based
[5] = molecular target: T2, β2-adaptin(700–937)-StrepTagII (human, UniProt P63010 700-937); assay: differential scanning fluorimetry (thermal shift); 0.78 μM purified β2-adaptin (700–937) in PBS with 0.5 mM Triton X-100, 30 min with 20 μM β-arrestin1 C-terminal peptide; CPM dye; 30 °C to 90 °C at 6 °C per min; settings: both partners purified
T2 construct: human β2-adaptin, residues 700 to 937 (appendage domain); printed molecular weight 26.88 kDa; Cloned into pRSETA between BamHI and Acc65I; also called β2-appendage; β-appendage; source: E. coli BL21 pLysS, purified (Strep-Tactin Sepharose, sepharose column, gel filtration)
T2 sequence (looked up): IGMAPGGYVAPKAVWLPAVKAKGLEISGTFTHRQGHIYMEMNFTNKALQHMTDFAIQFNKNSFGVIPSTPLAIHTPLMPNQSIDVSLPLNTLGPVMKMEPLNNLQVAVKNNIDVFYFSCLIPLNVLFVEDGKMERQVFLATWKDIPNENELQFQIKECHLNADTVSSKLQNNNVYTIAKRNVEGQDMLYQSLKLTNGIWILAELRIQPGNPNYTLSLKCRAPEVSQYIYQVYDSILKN

Molecule: Nn1cnc2scc(-c3ccc(-c4ccccc4)cc3)c2c1=O [Analogue-C]
IC50 (β2-adaptin [2]): 54.3 ± 45 µM

B1: β-arrestin1 C-terminal peptide (peptide)
peptide: DDDIVFEDFARQRLKGMKDD
notes: C-terminal stretch of β-arrestin1; holds Phe-388, Phe-391 and Arg-395; also called β-arrestin1 C-tail peptide; 20-mer β-arrestin C-tail peptide; source: synthetic peptide (Genscript)
binding result [5]: binds

The remaining lines, values ahead:

IC50 (β2-adaptin [1]): 18.2 ± 7.7 µM | IC50 (β2-adaptin [2]): 14.6 ± 5 µM | IC50 (β2-adaptin [3]; AT1R endocytosis, AngII 1 uM 30 min, read-out: IC50 endosome localization AT1R): 40.6 ± 24.4 µM | IC50 (β2-adaptin [3]; V2R endocytosis, AVP 100 nM 30 min, read-out: IC50 endosome localization V2R): 31.5 ± 14.4 µM | IC50 (β2-adaptin [3]; β2AR endocytosis, ISO 10 uM 30 min, read-out: IC50 endosome localization β2AR): 18.4 ± 9.8 µM | IC50 (β2-adaptin [4]): 19.1 µM
Molecule: Nn1cnc2scc(-c3ccc(Cc4ccccc4)cc3)c2c1=O [#42, 3-amino-5-(4-benzylphenyl)-3H,4H-thieno[2,3-d]pyrimidin-4-one]

IC50 (β2-adaptin [2]): 15.4 ± 6.4 µM
Molecule: Cc1nc2scc(-c3ccc(C(C)(C)C)cc3)c2c(=O)n1N [Cpd #43]

From paper PMC5399295 (Nature Communications, 2017)
